Assay results as given in patent publication US11273193B2, “Synergistic composition as a promoter of autophagy” (GIULIANI S.P.A., priority 2017, dated 2022).
Entries after “also recorded” stand apart in the source; their conditions may differ.

Columns and labels:
Format in all cases: cell-based, human
p62/SQSTM1 = test: Immunoblot analysis of p62 protein levels in U2OS cells; details: immunoblot normalized to GAPDH, spermidine 0.5 μM, biotin 19.91 ng/ml, Galeopsis 7.9 ng/ml
Method: U2OS cells were grown to 80% confluence in Dulbecco Modified Eagle's Medium High Glucose (4.5 g/ID-Glucose) containing 4 mM L-glutamine, 10% fetal bovine serum (FBS) and treated with Spermidine (Lot. 2010112716), Galeopsis segetum (IDN 6781), Biotin (Lot. 2014124160) or their combinations. Protein samples were extracted in RIPA buffer as previously reported (De Mei C, Ercolani L, Parodi C, Veronesi M, Vecchio C L, Bottegoni G, et al. Dual inhibition of REV-ERBβ and autophagy as a novel pharmacological approach to induce cytotoxicity in cancer cells. Oncogene. 2015; 34(20):2597-608). p62/SQSTM1 and GAPDH levels were analyzed with anti-p62/SQSTM1 and anti-GADPH specific antibodies. Immunoblot experiments were performed in TBS-T buffer containing 5% bovine serum albumin (BSA). […] and anti-GAPDH antibodies were diluted 1:1000 and 1:50000, respectively. Complementary HPR-conjugated secondary antibodies were diluted 1:10000. Upon reaction with ECL Western blotting detection reagent, chemiluminescent signals were acquired with a LAS-4000 luminescent image analyzer and optical density of specific band signal was calculated with Photoshop image analysis software. GAPDH was adopted as a loading control and GAPDH signals were used to normalize p62 protein levels among different samples.
Immunoblots were repeated at least 4 times in order to express value as mean±SEM. […]

LC3 = test: Live fluorescent microscopy of LC3-RFP dots (autophagosome accumulation) in U2OS cells; details: U2OS cells transduced with LC3-RFP, 6 h; biotin 200 ng/ml, Galeopsis dry extract 100 ng/ml, spermidine 10 μM; FIG. 1
Excerpt: In order to evaluate whether biotin and/or Galeopsis segetum extract may affect autophagy, the inventors monitored the accumulation of autophagosome in cultured U2OS cells by live fluorescent microscopy (Klionsky D J, Abdelmohsen K, Abe A, Abedin M J, Abeliovich H, Acevedo Arozena A, et al. Guidelines for the use and interpretation of assays for monitoring autophagy. Autophagy. 2016; 12(1):1-222). Thus, cells were trasduced with construct containing the autophagy protein, LC3, fused with a Red Fluorescent Protein (RFP). Then, accumulation of fluorescent LC3 dots upon addition of biotin (200 ng/ml) or Galeopsis dry extract (100 ng/ml) was monitored by acquiring images every 30 min for 6 h. Spermidine (10 μM) was adopted as a positive control of an autophagy inducer compound (Pietrocola F, Lachkar S, Enot D, Niso-Santano M, Bravo-San Pedro J, Sica V, et al. Spermidine induces autophagy by inhibiting the acetyltransferase EP300. Cell Death & Differentiation. 2015; 22(3):509-16).
Both biotin and Galeopsis segetum dry extract produced a similar accumulation of LC3-red dots.

SQSTM1/p62 = test: Live fluorescent microscopy of p62-RFP dots (autophagy-mediated p62 degradation) in U2OS cells; details: U2OS cells transduced with p62-RFP; FIG. 2
Method: U2OS cells were seeded 3000 cells/well in 48-well plates, No. 1.5 Uncoated Coverslip, 6 mm glass diameter, previously coated with gelatin solution, and transduced with 0.2 ul di baculovirus/10 000 cells containing a chimeric protein p62-Red Fluorescent Protein (p62-RFP). At 48 h post-transduction the cells were treated with Spermidine, Biotin, Galeopsis, or vehicle and monitored for 24 h using NIKON Live Cell Imaging microscopy.
Because LC3-RFP dots may also accumulate upon a blockade of the autophagic flux, the autophagy-dependent degradation of the SQSTM1/p62 protein (Klionsky D J, Abdelmohsen K, Abe A, Abedin M J, Abeliovich H, Acevedo Arozena A, et al. Guidelines for the use and interpretation of assays for monitoring autophagy. Autophagy. 2016; 12(1):1-222) was thus monitored. p62 served as a link between LC3 and ubiquitinated substrates (Pankiv S, Clausen T H, Lamark T, Brech A, Bruun J-A, Outzen H, et al. p62/SQSTM1 binds directly to Atg8/LC3 to facilitate degradation of ubiquitinated protein aggregates by autophagy. Journal of Biological Chemistry. […]
Accordingly, the effects of biotin and Galeopsis on autophagy-mediated p62 degradation was evaluated analyzing the number of p62-RFP autophagosomes by live fluorescent microscopy. […] Then, p62 fluorescent dots were monitored upon addition of biotin, Galeopsis, spermidine or vehicle.

SQSTM1 = test: Immunoblot of SQSTM1 in U2OS cells, Example 14; details: 100 μM, 6 h, normalized by ACTIN, FIG. 3
Method: (§1) The levels of lipidated LC3 and SQSTM1 in human U2OS cells treated with equimolar doses of N1-methylspermidine and spermidine were evaluated. […] Specifically cultured human U2OS cells were treated 6 h with vehicle or equimolar doses of spermidine and N^1-methylspermidine (100 μM). The levels of lipidated LC3 (LC3-II) and SQSTM1 were then assessed by immunoblotting analysis as in example 8 with specific antibody. Actin signals were adopted as a loading control. Densitometry analysis of protein signals is reported as relative protein levels normalized by ACTIN. Vehicle sample value was set to 1. Shown as mean±SEM., n=3. *P<0.05 and **P<0.01, compounds versus vehicle.

lipidated LC3 (LC3-II) = test: Immunoblot of lipidated LC3 (LC3-II) in U2OS cells, Example 14; details: 100 μM, 6 h, normalized by ACTIN, FIG. 3
Method: as §1

Row | Compound | Percentage of p62 reduction versus vehicle (% ± SEM) (p62/SQSTM1) | accumulation of fluorescent LC3 dots (autophagosomes) (LC3) | reduction of p62-RFP fluorescent dots / signals versus vehicle (SQSTM1/p62) | autophagy-mediated degradation of SQSTM1 compared with vehicle (SQSTM1) | levels of the lipidated LC3-II form compared with vehicle (lipidated LC3 (LC3-II))
1 | O=C(O)CCCC[C@@H]1SC[C@@H]2NC(=O)N[C@@H]21 [Biotin, 5-[(3aS,4S,6aR)-2-oxohexahydro-1H-thieno[3,4-d]imidazole-4-yl]pentanoic acid] | 21 ± 1.5% | marked accumulation of fluorescent LC3 dots | drastic reduction of p62-RFP dots; also recorded: strong reduction of p62 fluorescent signals |  | 
2 | CNCCCNCCCCN [N1-methylspermidine] |  |  |  | stimulated autophagy-mediated degradation of SQSTM1 | increased the levels of the lipidated LC3-II form
3 | NCCCCNCCCN [Spermidine, N′-(3-aminopropyl)butane-1,4-diamine] | 5 ± 0.11% | marked accumulation of LC3 fluorescent dots | markedly reduced p62 fluorescent dots and fluorescent signals | stimulated autophagy-mediated degradation of SQSTM1 | increased the levels of the lipidated LC3-II form
